Test results: patent US20220267753A1, “RATIONAL THERAPEUTIC TARGETING OF ONCOGENIC IMMUNE SIGNALING STATES IN MYELOID MALIGNANCIES VIA THE UBIQUITIN CONJUGATING ENZYME UBE2N” (CHILDREN'S HOSPITAL MEDICAL CENTER, priority 2019, published 2022)
In brackets after ≈: the same amount, converted by molar mass.

What was measured:
[1] = In vivo preclinical pharmacokinetic analysis; design: species or system C57BL/6 mice; conditions: for drug-like / pharmacokinetic properties in words: mice; for AUC(0-inf) / AUC(0-t) / Cmax / Tmax / half-life: mouse, blood, ip, C57BL/6 mice, 20 mg/kg i.p., mean; for half-life: read-out: T½ (converted)
Description: PK studies of UC-764864 and UC-764865 were performed in C57BL/6 mice (18-22 g). 10 mg/kg and 20 mg/kg UC-764864 or UC-764865 was administered through intraperitoneal (i.p.) injection. After dosing, blood samples were collected at 15 min, 30 min, 1 h, 2 h, 4 h, 8 h, 12 h, and 24 h. Samples from three animals were collected at each time point. Approximately 500 μL of blood was collected via orbital vein from each mouse, processed, and analyzed by LC-MS. Standard curves were prepared in blood covering the concentration range of 50-3,0000 ng/mL. Using the data from the standard curves, calibration curves were generated for PK tests. For in vivo toxicity studies, 25 mg/kg UC-764864, UC-764865, 10 mg/kg NSC697923 or vehicle control (methocel 0.5% tween-20 0.2%,0.1% DMSO in water) were administered in B6.SJL-Ptprca Pepcb/BoyJ mice (n=3/group) through i.p. injection. For 2 weeks the mice received 4 doses of each compound. Routine body weight and blood counts were performed. At the end of the study, tissues were harvested, placed in 10% buffered formalin, stained with hematoxylin and eosin (H&E) and examined by a pathologist.

Aqueous solubility = format: physicochemical; conditions: aqueous medium (not further specified); read-out: Aqueous Solubility, highest soluble concentration
[2] = test system: THP1-Blue NF-κB reporter cells; assay: NF-κB activation assay; format: cell-based, human; conditions: for UBE2N-dependent activation of NF-κB, reporter screen: top 14 small molecules
Description: THP1-Blue NF-κB reporter cells (Invivogen) were diluted to 100,000 cells/mL and stimulated with 1 μg/mL IL1β, 100 ng/ml Pam3CSK4 or 1 μ/m LPS. The cells were subsequently seeded into a 96 well plate at 20,000 cells per well (200 μl) and introduced to drugs in an increasing concentration. The plates were incubated at 37 C, 5% CO2 for 24 hours. The following day, QuantiBlue Reagent was warmed to 37 C in a water bath and 180 μl was added to each well of a separate, clean 96 well plate. The incubated cells were spun down, and the supernatant was taken for the assay. To perform the assay, 20 μl of supernatant from each well was pipetted into the respective 180 μl QuantiBlue Reagent well, in triplicate. The reaction was mixed and incubated for 1 to 4 hours, when a color gradient could be seen. The absorbance was read at 630 nm for a final readout.

[3] = test system: patient-derived AML cells; assay: Viability (MTS) of patient-derived AML samples (PDX AMLs); format: cell-based, human; conditions: hierarchical clustering, MTS 24 h
Description: (§1) AML cell lines (5×10^3 cells/well) were seeded in 96-well plates and grown for 24 to 96 h in serum (10%)-containing medium in the presence or absence of inhibitors at the indicated concentrations. Proliferation was analyzed by means of an MTS assay using the CellTiter 96 Aqueous One Solution Cell Proliferation Assay (Promega, Madison, Wis., USA), according to the manufacturer's instructions. Data are mean with standard deviation from three independent experiments in technical triplicates. For the screening of 160 compounds from the UC library, the cell metabolic activity was assessed at 24 hours of treatment of MOLM-13 cells. Top 15 candidates were re-screened at 2 μM, and the cell metabolic activity was determined at 24 hours of treatment. In certain experiments, cell viability was determined by staining the cells with trypan blue at a 1/2 dilution and counting total number of viable cells upon treatment with UC-764864 or DMSO control. The cells were counted daily for 4 days using an automated cell counter (Countess II FL from Life Technologies). […] UC-764864 was added at the indicated concentrations and cells were incubated with drug for 3 days, at which point cell viability was measured by MTS according to manufacturer's instructions. […]

MOLM-13 cells = assay: Trypan blue viability and Caspase 3 cleavage immunoblot; format: cell-based, human
Description: as §1

SMILES	drug-like / pharmacokinetic properties in words [1]	AUC(0-inf) [1] [ng·h/mL]	AUC(0-t) [1] [ng·h/mL]	Cmax [1] [ng/mL]	Tmax [1] [h]	half-life [1] [h]	solubility (Aqueous solubility) [µM]	UBE2N-mediated NF-κB activity downstream of IL1R, TLR2, TLR4 ([2]; increasing concentrations, concentration dependent, equal potency)	UBE2N-dependent activation of NF-κB, reporter screen [2]	sensitivity class of the other 20 PDX AMLs ([3]; 20 of 26 PDX AMLs)	sensitivity class of PDX AMLs JM1, JM7, JM18, JM26, JM30, JM40 ([3]; six of 26 PDX AMLs)	apoptosis (trypan blue uptake, cleavage of Caspase 3) (MOLM-13 cells)
CCc1ccc(C(=O)C=CSc2nc3ccc(C)cc3[nH]2)cc1 [UC-764864, 1-(4-ethylphenyl)-3-[(6-methyl-1H-benzimidazol-2-yl)sulfanyl]prop-2-en-1-one]	poor pharmacokinetic (PK) properties	461	436	446	0.25	2.07	1 (≈ 0.322 µg/mL)	inhibited UBE2N-mediated NF-κB activity	inhibition of UBE2N-dependent signaling	resistant	sensitive	increase in apoptosis
COc1ccc(C(=O)C=CSc2nc3ccc(C)cc3[nH]2)cc1 [UC-764865, 1-(4-methoxyphenyl)-3-[(6-methyl-1H-benzimidazol-2-yl)sulfanyl]prop-2-en-1-one]	modestly improved solubility, stability, and PK properties	413	346 ± 46.3	216	0.33	8.8	5 (≈ 1.62 µg/mL)	–	inhibition of UBE2N-dependent signaling	–	–	–
